Data set [1] in a line: Blood-brain barrier assay of Compound AST-2870 (plasma and brain concentration, PK). It counts as in vivo, CD-1 mice. The procedure: Three CD-1 mice were administered 10 mg/kg of test Compound AST-2870 by intraperitoneal injection at each time point. Blood and brain tissues were taken at 5 min, 15 min, 30 min, 1 h, 1.5 h, and 2 h after administration, and the concentration of the test substance in the samples was determined by LC/MS method. The corresponding results of the concentrations of Compound AST-2870 in blood and brain tissue versus time were made into a curve graph, as shown in FIG. 37. The corresponding test results of the ratio of the concentration of the Compound AST-2870 in brain tissue and blood versus time were made into a curve graph, as shown in FIG. 38.

Data set [2] has as its system MHCC97H. The data set is described as follows: Cytotoxicity on hepatocellular carcinoma cell line MHCC97H. The conditions noted are these: for IC50: Homo sapiens. In kind it is cell-based. As for the experimental part:
(§1) If not otherwise specified, IC50 values were measured by the following experimental methods:
(§2) a) Cells were plated for 24 hours, and then the compounds acted singly. 99 μL of growth medium was supplemented per well, and then 1 μL of 200× compound was added, gently shaken to ensure uniform mixing, and then placed in a 37° C., 5% CO2 incubator.
(§3) b) The cell plate was placed in the incubator for 72 hours.
(§4) b) 100 μL of CTG reagent (CelltiterGlo kit) was added to each well, the plate was placed in a rapid oscillator and shaken for 2 minutes, and then placed at room temperature for 30 minutes away from light.
(§5) The IC50 was calculated using GraphPad Prism 8 software and the IC50 (half inhibitory concentration) of the compounds was obtained using the following non-linear fitting formula: […]
(§6) Using the same experimental methods as described above, Compounds A, B and C were further tested for cytotoxicity against different hepatocellular carcinoma (HCC) cell lines SNU354, SNU886, MHCC97H and huH-1, and the results were shown in Table 2 below: […]

For data set [3], the system named is SNU354. Put plainly: Cytotoxicity on hepatocellular carcinoma cell line SNU354. In kind it is cell-based. To be noted: for IC50: Homo sapiens, SNU-354. As for the experimental part:
as §1, §2, §3, §4, §5, §6

Data set [4] concerns SNU886. Put plainly: Cytotoxicity on hepatocellular carcinoma cell line SNU886. It counts as cell-based. To be noted: for IC50: SNU-886. As for the experimental part: as §1, §2, §3, §4, §5, §6
The subject of data set [5] is H460 cancer cells. The data set is described as follows: H460 proliferation in the presence or absence of AKR1C3 inhibitor AST-3021 (Alamar Blue). To be noted: for IC50: Homo sapiens, NCI-H460, H460, 2 hours exposure; for Fold: IC50 with AST-3021 over IC50 without. It counts as cell-based, human. As for the experimental part:
The tested compound was then added. The compound was dissolved in 100% DMSO at 200 times of the desired final test concentration. When the medicament was added, the compound was further diluted to 4 times of the desired final test concentration by using the complete medium. 50 μL of aliquots of the compound with specific concentration were added to the microwells containing 150 μL of medium, and then the final medicament concentration was obtained. […] The medicament was then washed. […] After the incubation was finished, the Alamar Blue was used to analyze and quantify the living cells.
(Alamar Blue is a resazurin reagent that responds to reducing activity.)

The test system of data set [6] is H460 cells. Put plainly: Inhibition of H460 cancer cell proliferation (CTG, 72 h). The conditions noted are these: Homo sapiens, NCI-H460. It counts as cell-based. As for the experimental part: as §1
c) The cell suspension was added to 96-well plate with 100 μL per well and 2000 cells/well of cell density.
as §2, §3, §4
c) The chemiluminescence signal value was read with Envision instrument.
as §5

Data set [7] concerns huH-1. The data set is described as follows: Cytotoxicity on hepatocellular carcinoma cell line huH-1. It counts as cell-based. To be noted: for IC50: Homo sapiens, HuH-1. The procedure:
as §1, §2, §3, §4, §5, §6

[8] abbreviates: brain tissues, 10 mg/kg intraperitoneal injection, Mean.
Setting [9] is: plasma, 10 mg/kg intraperitoneal injection, Mean.
The mark [10] stands for this setting: no AKR1C3 inhibitor, read-out: IC50 Without the addition of AST-3021.

Where two headings read alike, the source gives them in different places.

`CC(OP(=O)(N1CC1)N1CC1)c1ccc([N+](=O)[O-])c(Oc2cccc(C(=O)N(C)C)c2)c1` (stereo not drawn) [AST-2870]: the concentration in brain entry in data set [1] (10 mg/kg i.p., after 30 minutes) was “lower than the lower limit of quantitation”. In addition, the blood-brain barrier penetration entry in data set [1] (10 mg/kg intraperitoneal injection) is “could not cross the blood-brain barrier”. Also, in data set [1] (10 mg/kg intraperitoneal injection, Mean), the “AUCInf Ratio (Brain/Plasma)” value is 0.0227. In data set [1] (setting [8]), the AUCInf turned out to be 16.5 ng·h/g, the AUClast was 16.3 ng·h/g, the time to peak (Tmax) amounted to 4.8 min and the T½ is 4.48 min. Besides, in data set [1] (setting [9]), the AUCInf was 725 ng·h/mL, the AUClast stood at 725 ng·h/mL, the maximum concentration (Cmax) worked out at 4023 ng/mL and the T½ was 9 min.

On to `O=[N+]([O-])c1ccc([C@@H](OP(=O)(N2CC2)N2CC2)C(F)(F)F)cc1Oc1ccc(-c2ccc(F)cc2)c(F)c1` [C], for which the IC50 is 563 nM in data set [2]; 1520 nM in data set [3]; 843 nM in data set [4]; 3330 nM in data set [5] (AST-3021 3 micromolar, read-out: IC50 With the addition of AST-3021); 7.66 nM in data set [5] (setting [10]); 23.4 nM in data set [6]. The molecule further showed a 50% inhibitory concentration (IC50) in data set [7] of 269 nM. Besides, the “ratio C/B” value in data set [2] (IC50 ratio) is given as 2.32; in data set [3] (IC50 ratio) it was 2.01; in data set [4] (IC50 ratio) it was 2.23; in data set [7] (IC50 ratio, huH-1), 1.49. Further, in data set [5], the Fold turned out to be 434.76.

With `O=[N+]([O-])c1ccc([C@H](OP(=O)(N2CC2)N2CC2)C(F)(F)F)cc1Oc1ccc(-c2ccc(F)cc2)c(F)c1` [B], the IC50 in data set [2] stood at 242 nM; in data set [3], 754 nM; in data set [4] it was 378 nM; in data set [5] (setting [10]), 3.73 nM; in data set [6] it was 8.77 nM; in data set [7], 258 nM. In data set [5], this molecule had a Fold of 513.28.

One may read the Tmax as the time at which the peak concentration occurs. Broadly, the Cmax is the peak of the concentration-time curve. A word on the IC50: it is the midpoint of a concentration-inhibition curve.
